What was measured:
[1] = Preliminary tests of analgesic properties
total Ca2+ currents = test: Whole-cell patch-clamp, total Ca2+ currents in small-to-medium DRG neurons; format: cell-based, rat; conditions: 20 μM overnight; normalized to 0.1% DMSO control (1.00±0.06)
Description: Recordings were obtained from acutely dissociated DRG neurons as described earlier (Bellampalli et al., 2019). Patch-clamp recordings were performed at room temperature (22-24° C.). Currents were recorded using an EPC 10 Amplifier-HEKA (HEKA Elektronik, Ludwigshafen, Germany) linked to a computer with Patchmaster software. DRG neurons were incubated overnight (˜16-24 hours) with 20 μM of CBD3063.
For total calcium current (ICa^2+) recordings, the external solution consisted of the following (in mM): 110 N-methyl-D-glucamine, 10 BaCl2, 30 TEA-Cl, 10 HEPES, 10 glucose, and 0.001 TTX (pH 7.29 adjusted with TEA-OH, and mOsm/L=310). Patch pipettes were filled with an internal solution containing (in mM): 150 CsCl2, 10 HEPES, 5 Mg-ATP, and 5 BAPTA, (pH 7.2 adjusted with CsOH, and mOsm/L-305). Peak Ca^2+ current was acquired by applying 200-millisecond voltage steps from −70 to +60 mV in 10-mV increments from a holding potential of −90 mV to obtain the current-voltage (I-V) relation. To measure the different subtypes of Ca^2+ channels, DRGs were treated with a Cav inhibitor cocktail omitting the inhibitor specific to the subtype being tested (e.g., to measure Cav2.2 currents, ω-conotoxin GVIA is omitted): Nifedipine (10 μM, L-type), ω-Conotoxin-GVIA (500 nM, […]) (Feng, et al., 2001), SNX482 (200 nM, R-type) (Newcomb et al., 1998), ω-agatoxin (200 nM, P/Q-type) (Mintz et al., 1992), TTA-P2 (1 μM, T-type) (Choe et al., 2011).
Normalization of currents to each cell's capacitance (pF) was performed to allow for collection of current density data. For I-V curves, functions were fitted to data using a non-linear least squares analysis. I-V curves were fitted using double Boltzmann functions:
where x is the pre-pulse potential, V1/2 is the mid-point potential, and k is the corresponding slope factor for single Boltzmann functions. Double Boltzmann fits were used to describe the shape of the curve, not to imply the existence of separate channel populations. Numbers 1 and 2 simply indicate first and second mid-points; a along with g are fitting parameters.
Activation curves were obtained from the I-V curves by dividing the peak current at each depolarizing step by the driving force according to the equation: G=I/(Vmem-Erev), where I is the peak current, Vmem is the membrane potential and Erev is the reversal potential. The conductance (G) was normalized against the maximum conductance (Gmax). For total and the different subtypes of Ca^2+ currents, steady-state inactivation (SSI) curves were obtained by applying an H-infinity protocol that consisted of 1.5-seconds conditioning pre-pulses from −100 to +30 mV in 10-mV increments followed by a 20-millisecond test pulse to +10 mV. For Na^+ currents, SSI curves were obtained by applying an H-infinity protocol that consisted of 1-second conditioning pre-pulses from −120 to +10 mV in 10-mV increments followed by a 200-millisecond test pulse to +10 mV. Inactivation curves were obtained by dividing the peak current recorded at the test pulse by the maximum current (Imax). Activation and SSI curves were fitted with the Boltzmann equation.

SMILES | analgesic properties [1] | normalized peak total ICa2+ density (total Ca2+ currents)
N=C(NCCCN1CCc2ccccc2C1)NCc1ccccc1 [CBD3065, N′-benzyl-N-[3-(3,4-dihydro-1H-isoquinolin-2-yl)propyl]guanidine] | did not exhibit analgesic properties | 0.52±0.07 ratio to DMSO control
COc1ccccc1CNC(=N)NCCCN1Cc2ccccc2C1 [CBD3074, N-[3-(1,3-dihydroisoindol-2-yl)propyl]-N′-[(2-methoxyphenyl)methyl]guanidine] | – | 0.58±0.06 ratio to DMSO control

Reference: patent US20250017940A1, “SELECTIVE PEPTIDOMIMETIC MODULATORS OF CAV2.2 (N-TYPE) VOLTAGE-GATED CALCIUM CHANNELS AND USES THEREOF” (New York University, priority 2023, published 2025)
